The source of these data is ChEMBL document CHEMBL5291721, “A preclinical secondary pharmacology resource illuminates target-adverse drug reaction associations of marketed drugs” (Nat Commun, 2023).

Targets include Vasopressin V2 receptor (Homo sapiens, UniProt P30518); Glucagon receptor (Homo sapiens, UniProt P47871); Histamine H2 receptor (Homo sapiens, UniProt P25021).
The target in experiment [1] is Sodium-dependent noradrenaline transporter (Homo sapiens, UniProt P23975).
In experiment [2] the target is Delta-type opioid receptor (Homo sapiens, UniProt P41143).
Delta-type opioid receptor, sequence (P41143 whole entry): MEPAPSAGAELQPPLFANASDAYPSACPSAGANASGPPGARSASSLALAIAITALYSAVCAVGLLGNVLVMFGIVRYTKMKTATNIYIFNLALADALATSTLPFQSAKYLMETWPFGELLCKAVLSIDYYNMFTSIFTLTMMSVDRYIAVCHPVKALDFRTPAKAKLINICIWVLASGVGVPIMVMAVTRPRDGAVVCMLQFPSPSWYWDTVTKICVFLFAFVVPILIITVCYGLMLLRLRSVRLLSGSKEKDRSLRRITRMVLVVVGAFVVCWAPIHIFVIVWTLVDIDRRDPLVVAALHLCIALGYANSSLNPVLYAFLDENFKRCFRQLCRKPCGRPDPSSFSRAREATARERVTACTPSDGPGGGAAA
Experiment [3] addresses T1, Alpha-2A adrenergic receptor (Homo sapiens, UniProt P08913).
T1 sequence (P08913 whole entry): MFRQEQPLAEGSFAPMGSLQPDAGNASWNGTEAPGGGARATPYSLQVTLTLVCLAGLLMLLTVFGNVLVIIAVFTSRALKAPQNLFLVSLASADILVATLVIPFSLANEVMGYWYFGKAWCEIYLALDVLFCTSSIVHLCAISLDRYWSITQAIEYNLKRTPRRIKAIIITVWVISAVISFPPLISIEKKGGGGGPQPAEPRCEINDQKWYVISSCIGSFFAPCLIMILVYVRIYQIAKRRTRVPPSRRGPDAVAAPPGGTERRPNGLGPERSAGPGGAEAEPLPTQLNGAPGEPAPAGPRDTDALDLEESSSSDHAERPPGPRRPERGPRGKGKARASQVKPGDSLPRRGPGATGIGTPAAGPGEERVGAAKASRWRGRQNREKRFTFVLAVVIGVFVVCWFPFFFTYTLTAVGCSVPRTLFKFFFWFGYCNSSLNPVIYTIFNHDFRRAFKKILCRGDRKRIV

For another experiment, the target named is T2, Estrogen receptor (Homo sapiens, UniProt P03372).
T2 sequence (P03372 whole entry): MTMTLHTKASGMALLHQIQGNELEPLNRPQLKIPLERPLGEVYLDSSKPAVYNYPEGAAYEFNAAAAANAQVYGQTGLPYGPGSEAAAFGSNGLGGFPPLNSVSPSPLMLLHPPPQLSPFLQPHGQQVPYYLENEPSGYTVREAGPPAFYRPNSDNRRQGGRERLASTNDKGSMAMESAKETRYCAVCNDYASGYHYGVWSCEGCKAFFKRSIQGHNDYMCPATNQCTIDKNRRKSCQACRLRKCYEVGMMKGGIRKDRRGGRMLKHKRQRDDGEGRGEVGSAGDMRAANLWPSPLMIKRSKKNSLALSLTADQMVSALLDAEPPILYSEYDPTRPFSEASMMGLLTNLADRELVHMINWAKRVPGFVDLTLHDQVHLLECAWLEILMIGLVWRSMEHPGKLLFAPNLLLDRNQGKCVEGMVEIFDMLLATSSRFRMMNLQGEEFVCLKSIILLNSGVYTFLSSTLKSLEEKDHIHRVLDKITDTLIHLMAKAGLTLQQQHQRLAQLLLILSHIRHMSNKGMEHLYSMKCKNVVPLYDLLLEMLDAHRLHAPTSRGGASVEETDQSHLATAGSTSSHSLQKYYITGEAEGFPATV

For experiment [4], the target named is T3, Corticotropin-releasing factor receptor 2 (Homo sapiens, UniProt Q13324).
T3 sequence (Q13324 whole entry): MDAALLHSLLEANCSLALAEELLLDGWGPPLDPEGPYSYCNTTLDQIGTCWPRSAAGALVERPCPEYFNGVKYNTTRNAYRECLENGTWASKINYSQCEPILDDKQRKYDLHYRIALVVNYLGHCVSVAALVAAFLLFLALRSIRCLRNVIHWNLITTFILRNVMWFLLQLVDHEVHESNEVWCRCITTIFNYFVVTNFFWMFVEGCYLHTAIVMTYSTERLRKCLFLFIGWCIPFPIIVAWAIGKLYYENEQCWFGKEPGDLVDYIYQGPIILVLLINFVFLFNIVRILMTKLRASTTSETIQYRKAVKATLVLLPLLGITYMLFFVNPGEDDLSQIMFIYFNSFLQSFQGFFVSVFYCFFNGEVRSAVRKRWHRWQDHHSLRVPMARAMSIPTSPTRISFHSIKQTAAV

Experiment [5] concerns the target Neurotensin receptor type 1 (Homo sapiens, UniProt P30989).
The target of experiment [6] is T4, Gastric inhibitory polypeptide receptor (Homo sapiens, UniProt P48546).
T4 sequence (P48546 whole entry): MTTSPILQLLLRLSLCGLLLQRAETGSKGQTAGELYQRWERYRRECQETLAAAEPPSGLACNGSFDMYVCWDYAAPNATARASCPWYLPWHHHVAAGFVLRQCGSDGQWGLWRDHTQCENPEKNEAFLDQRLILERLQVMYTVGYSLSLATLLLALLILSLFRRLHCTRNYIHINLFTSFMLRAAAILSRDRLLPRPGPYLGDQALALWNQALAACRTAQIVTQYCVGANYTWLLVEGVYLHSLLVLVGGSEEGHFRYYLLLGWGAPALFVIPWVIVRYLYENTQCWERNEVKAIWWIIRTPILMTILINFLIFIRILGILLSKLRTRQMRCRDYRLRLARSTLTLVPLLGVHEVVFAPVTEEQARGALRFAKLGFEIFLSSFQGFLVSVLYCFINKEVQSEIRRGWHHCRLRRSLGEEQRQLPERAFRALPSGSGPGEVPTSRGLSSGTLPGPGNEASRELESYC
Also: assay procedure not described here.

Vasopressin V2 receptor, sequence (P30518 whole entry): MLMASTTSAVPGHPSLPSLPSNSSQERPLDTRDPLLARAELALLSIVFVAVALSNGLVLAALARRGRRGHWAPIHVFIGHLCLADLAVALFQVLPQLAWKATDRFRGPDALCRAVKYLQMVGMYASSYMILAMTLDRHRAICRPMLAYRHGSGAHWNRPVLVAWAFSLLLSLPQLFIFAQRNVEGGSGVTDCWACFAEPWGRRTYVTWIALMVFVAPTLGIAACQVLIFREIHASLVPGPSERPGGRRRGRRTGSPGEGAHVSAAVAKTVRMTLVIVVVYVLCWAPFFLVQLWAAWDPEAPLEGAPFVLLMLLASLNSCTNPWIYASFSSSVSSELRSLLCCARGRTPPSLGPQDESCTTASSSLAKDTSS
Sodium-dependent noradrenaline transporter, sequence (P23975 whole entry): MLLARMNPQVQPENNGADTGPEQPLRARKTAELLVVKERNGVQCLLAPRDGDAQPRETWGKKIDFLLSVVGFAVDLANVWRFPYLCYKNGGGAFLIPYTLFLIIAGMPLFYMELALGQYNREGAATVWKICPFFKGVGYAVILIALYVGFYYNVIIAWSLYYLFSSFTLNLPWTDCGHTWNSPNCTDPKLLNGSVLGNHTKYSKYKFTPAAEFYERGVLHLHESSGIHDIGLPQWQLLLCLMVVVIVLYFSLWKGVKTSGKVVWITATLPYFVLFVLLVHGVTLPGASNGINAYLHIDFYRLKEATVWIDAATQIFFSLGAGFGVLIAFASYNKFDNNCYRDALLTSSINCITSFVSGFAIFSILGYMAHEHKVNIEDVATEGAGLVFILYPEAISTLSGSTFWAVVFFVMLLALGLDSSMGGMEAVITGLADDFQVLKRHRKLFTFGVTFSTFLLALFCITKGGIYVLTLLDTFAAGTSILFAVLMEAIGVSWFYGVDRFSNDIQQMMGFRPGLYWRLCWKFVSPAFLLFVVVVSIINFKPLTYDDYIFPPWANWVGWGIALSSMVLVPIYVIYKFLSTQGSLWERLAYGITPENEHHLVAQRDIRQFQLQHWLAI
Glucagon receptor, sequence (P47871 whole entry): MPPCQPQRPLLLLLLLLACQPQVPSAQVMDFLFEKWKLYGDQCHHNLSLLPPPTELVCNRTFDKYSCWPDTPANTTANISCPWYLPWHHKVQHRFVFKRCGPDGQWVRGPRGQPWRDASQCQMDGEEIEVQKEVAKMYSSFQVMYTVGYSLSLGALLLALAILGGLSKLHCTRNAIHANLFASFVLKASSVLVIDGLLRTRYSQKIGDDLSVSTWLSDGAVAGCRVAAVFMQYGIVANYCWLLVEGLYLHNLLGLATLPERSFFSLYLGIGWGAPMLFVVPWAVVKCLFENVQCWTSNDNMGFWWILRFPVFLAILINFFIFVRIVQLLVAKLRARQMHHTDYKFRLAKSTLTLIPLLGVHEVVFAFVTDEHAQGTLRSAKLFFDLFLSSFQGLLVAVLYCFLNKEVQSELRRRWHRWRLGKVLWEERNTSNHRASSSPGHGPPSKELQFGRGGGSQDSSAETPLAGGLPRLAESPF
Neurotensin receptor type 1, sequence (P30989 whole entry): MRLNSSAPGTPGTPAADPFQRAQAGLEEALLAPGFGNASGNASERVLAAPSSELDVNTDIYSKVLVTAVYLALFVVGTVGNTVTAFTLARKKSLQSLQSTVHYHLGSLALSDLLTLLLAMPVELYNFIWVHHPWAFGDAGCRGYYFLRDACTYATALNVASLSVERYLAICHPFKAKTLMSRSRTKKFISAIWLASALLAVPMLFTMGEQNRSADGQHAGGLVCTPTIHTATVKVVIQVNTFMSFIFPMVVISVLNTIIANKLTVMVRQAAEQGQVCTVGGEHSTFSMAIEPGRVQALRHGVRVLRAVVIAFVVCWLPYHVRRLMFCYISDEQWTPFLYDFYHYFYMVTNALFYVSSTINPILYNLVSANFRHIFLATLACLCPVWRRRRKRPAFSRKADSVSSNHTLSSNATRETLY
Histamine H2 receptor, sequence (P25021 whole entry): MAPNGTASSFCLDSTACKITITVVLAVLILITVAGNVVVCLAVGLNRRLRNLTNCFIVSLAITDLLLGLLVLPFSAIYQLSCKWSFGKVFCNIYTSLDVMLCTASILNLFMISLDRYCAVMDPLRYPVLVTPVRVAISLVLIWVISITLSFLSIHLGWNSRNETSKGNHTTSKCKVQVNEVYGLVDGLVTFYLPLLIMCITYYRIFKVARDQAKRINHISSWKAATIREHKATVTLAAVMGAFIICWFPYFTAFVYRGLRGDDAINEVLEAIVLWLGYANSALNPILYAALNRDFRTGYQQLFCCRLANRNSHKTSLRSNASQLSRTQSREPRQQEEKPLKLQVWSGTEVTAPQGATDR

Turning to `C[C@@H](NCCCc1cccc(C(F)(F)F)c1)c1cccc2ccccc12`, the AC50 at Vasopressin V2 receptor was 20 µM; in [1] it was 7.2 µM; in [2], above 30 µM.

On to `COc1ccc(CC2c3cc(OC)c(OC)cc3CC[N+]2(C)CCC(=O)OCCCCCOC(=O)CC[N+]2(C)CCc3cc(OC)c(OC)cc3C2Cc2ccc(OC)c(OC)c2)cc1OC` (stereo not given), for which the half-maximal activity concentration (AC50) at Vasopressin V2 receptor was above 30 µM; in experiment [3], above 30 µM; on Estrogen receptor it was above 30 µM; in experiment [1], 11.3 µM; in experiment [2], above 30 µM.

Turning to `CCN1CCN(Cc2ccc(Nc3ncc(F)c(-c4cc(F)c5nc(C)n(C(C)C)c5c4)n3)nc2)CC1` [ABEMACICLIB], the half-maximal activity concentration (AC50) in experiment [1] and in experiment [2] was above 30 µM each time.

In the case of `CCCN(CCC)C(=O)Cc1c(-c2ccc(Cl)cc2)nc2ccc(Cl)cn12` [ALPIDEM], the AC50 was above 30 µM at Vasopressin V2 receptor; above 10 µM in experiment [3]; above 30 µM on Estrogen receptor; above 30 µM in experiment [1]; above 10 µM at Glucagon receptor; above 10 µM at Histamine H2 receptor. The compound also yielded a concentration at half-maximal activity (AC50) in experiment [2] above 30 µM.

As for `COc1cc2nccc(Oc3ccc(NC(=O)C4(C(=O)Nc5ccc(F)cc5)CC4)cc3)c2cc1OC` [CABOZANTINIB], the half-maximal activity concentration (AC50) in experiment [1] and in [2] was above 30 µM each time.

With `CC(C(=O)O)c1ccc2c(c1)[nH]c1ccc(Cl)cc12` (stereo not given) [CARPROFEN], the concentration at half-maximal activity (AC50) (at Vasopressin V2 receptor; on Estrogen receptor; in experiment [1]; in [2]) was above 30 µM each time.

As for `O=C1CCc2cc(OCCCCc3nnnn3C3CCCCC3)ccc2N1` [CILOSTAZOL], the concentration at half-maximal activity (AC50) (at Vasopressin V2 receptor; at Estrogen receptor; in experiment [1]; in experiment [2]) was above 30 µM in each case.

For the compound `C[C@@H](Oc1cc(-c2cnn(C3CCNCC3)c2)cnc1N)c1c(Cl)ccc(F)c1Cl` [CRIZOTINIB], the concentration at half-maximal activity (AC50) at Vasopressin V2 receptor was above 30 µM; in [1], 7.96 µM; on Glucagon receptor, above 30 µM; in [2] it was above 30 µM.

As for `O=C1CN(/N=C/c2ccc(-c3ccc([N+](=O)[O-])cc3)o2)C(O)=N1` [DANTROLENE], the half-maximal activity concentration (AC50) on Vasopressin V2 receptor is above 10 µM; in [1], above 10 µM; in experiment [2], above 30 µM.

Turning to `CN(C)CC[C@@H](c1ccc(Cl)cc1)c1ccccn1` [DEXCHLORPHENIRAMINE], the figures for the concentration at half-maximal activity (AC50) (on Vasopressin V2 receptor; in [1]; in experiment [2]) were above 30 µM, 18 µM and above 30 µM, respectively.

In the case of `CC(C)N(CCC(C(N)=O)(c1ccccc1)c1ccccn1)C(C)C` (stereo not given) [DISOPYRAMIDE], the half-maximal activity concentration (AC50) (in [4]; in experiment [5]; in experiment [6]; at Vasopressin V2 receptor; in experiment [1]; on Glucagon receptor) was above 30 µM each time. In experiment [2], this compound registered an AC50 above 30 µM.

Turning to `C[C@]12C=CC(=O)N[C@@H]1CC[C@@H]1[C@@H]2CC[C@]2(C)[C@@H](C(=O)Nc3cc(C(F)(F)F)ccc3C(F)(F)F)CC[C@@H]12` [DUTASTERIDE], the half-maximal activity concentration (AC50) is above 10 µM on Vasopressin V2 receptor, above 10 µM on Estrogen receptor, above 10 µM in [1] and above 30 µM in experiment [2].

As to `CN1C[C@H](C(=O)N[C@]2(C)O[C@@]3(O)[C@@H]4CCCN4C(=O)[C@H](Cc4ccccc4)N3C2=O)C=C2c3cccc4[nH]cc(c34)C[C@H]21` [ERGOTAMINE], the AC50 in experiment [1] and in [2] was above 30 µM each time.

Take `CN(C)CCC[C@@]1(c2ccc(F)cc2)OCc2cc(C#N)ccc21` [ESCITALOPRAM]: the half-maximal activity concentration (AC50) (at Vasopressin V2 receptor; in experiment [2]) was above 30 µM in each case.

In experiment [2], `C#C[C@]1(O)CC[C@H]2[C@@H]3CCC4=CC(=O)CC[C@@H]4[C@H]3C(=C)C[C@@]21CC` [ETONOGESTREL] displayed an AC50 above 30 µM.

`CN(CC1(C)CCCO1)S(=O)(=O)c1ccc(Cl)c(S(N)(=O)=O)c1` (stereo not given) [MEFRUSIDE]: the concentration at half-maximal activity (AC50) in experiment [2] is above 30 µM.

In the case of `CC(=O)O[C@]1(C(C)=O)CC[C@H]2[C@@H]3C=C(C)C4=CC(=O)CC[C@@H]4[C@H]3CC[C@@]21C` [NOMEGESTROL ACETATE], the AC50 (at Estrogen receptor; in experiment [1]; in experiment [2]) was above 30 µM each time.

For the compound `CN1C(C(=O)Nc2ccccn2)=C(O)c2ccccc2S1(=O)=O` [PIROXICAM], the AC50 at Vasopressin V2 receptor is above 10 µM; on Estrogen receptor, above 10 µM; in [1], above 10 µM; in experiment [2], above 30 µM.

With `C=C[C@H]1C[N@@]2CC[C@H]1C[C@@H]2[C@@H](O)c1ccnc2ccc(OC)cc12` [QUINIDINE], the AC50 (on Vasopressin V2 receptor; on Estrogen receptor; in [1]; in experiment [2]) was above 30 µM each time.

Take `CC(N)C12CC3CC(CC(C3)C1)C2` (stereo not given) [RIMANTADINE]: the AC50 at Vasopressin V2 receptor was above 10 µM; at Estrogen receptor it was above 10 µM; in experiment [1], above 10 µM; in experiment [2], above 30 µM.

For the compound `CC(C)c1nc(N(C)S(C)(=O)=O)nc(-c2ccc(F)cc2)c1/C=C/[C@@H](O)C[C@@H](O)CC(=O)O` [ROSUVASTATIN], the AC50 (on Vasopressin V2 receptor; at Estrogen receptor; in experiment [1]; in experiment [2]) was above 30 µM each time.

In the case of `OC[C@H]1O[C@@](CO)(O[C@H]2O[C@H](CO)[C@@H](O)[C@H](O)[C@H]2O)[C@@H](O)[C@@H]1O` [SUCROSE], the AC50 (on Vasopressin V2 receptor; at Estrogen receptor; in [1]; in experiment [2]) was above 30 µM throughout.

Regarding `O=C1C(CC[S+]([O-])c2ccccc2)C(=O)N(c2ccccc2)N1c1ccccc1` (stereo not given) [SULFINPYRAZONE], the half-maximal activity concentration (AC50) at Vasopressin V2 receptor was above 10 µM; at Estrogen receptor it was above 10 µM; in experiment [1], above 10 µM; in experiment [2] it was above 30 µM.

On to `CCN(CC)CCNC(=O)c1c(C)[nH]c(/C=C2\C(=O)Nc3ccc(F)cc32)c1C` [SUNITINIB], for which the concentration at half-maximal activity (AC50) at Vasopressin V2 receptor is 5.4 µM; in experiment [3], 9.47 µM; in [1] it was 1.76 µM; in experiment [2], 1.7 µM.

As to `CC(C)(C)NCC(O)c1cc(O)cc(O)c1` (stereo not given) [TERBUTALINE], the AC50 (at Vasopressin V2 receptor; in [1]) was above 30 µM in each case.

Turning to `CC(S)C(=O)NCC(=O)O` (stereo not given) [TIOPRONIN], the AC50 in [1] and in [2] was above 30 µM each time.

For the compound `C[C@H](CCC(=O)O)[C@H]1CC[C@H]2[C@@H]3[C@@H](O)C[C@@H]4C[C@H](O)CC[C@]4(C)[C@H]3CC[C@]12C` [URSODIOL], the AC50 in experiment [1] and in experiment [2] was above 30 µM throughout.

For the compound `CCCC(CCC)C(=O)O` [VALPROIC ACID], the AC50 in experiment [4] was above 30 µM; in experiment [5], above 30 µM; in [6], above 30 µM; on Vasopressin V2 receptor, above 30 µM; in [3], above 10 µM; at Estrogen receptor it was above 30 µM. Also, the AC50 (in experiment [1]; at Glucagon receptor; in experiment [2]) was above 30 µM throughout.

As usually defined, the AC50 is the concentration giving half of the maximal activity seen.
